# According to patent US8809001B2, “High throughput assays for inhibitors and activators of PAQR receptors” (University of Florida Research Foundation, Inc., priority 2007, dated 2014):
# Where two headings read alike, the source gives them in different places.
# How the values were obtained:
# mPRγ = target: T1, mPRγ (Homo sapiens, UniProt Q9NXK6); assay: FET3-lacZ reporter repression in yeast expressing mPRγ; type: cell-based; details: for agonist activity on mPRγ (in words): FET3-lacZ, steroids up to 10 μM
# T1 construct: Full length and truncated mPRγ and mPRα were expressed in wild type cells grown in 2% galactose from the pGREG536 vector; expressed in transfected cells; host or cells: Saccharomyces cerevisiae (BY4742 wild type; also gpa mutants), GAL1-driven plasmids
# T1 sequence (Q9NXK6 1-330): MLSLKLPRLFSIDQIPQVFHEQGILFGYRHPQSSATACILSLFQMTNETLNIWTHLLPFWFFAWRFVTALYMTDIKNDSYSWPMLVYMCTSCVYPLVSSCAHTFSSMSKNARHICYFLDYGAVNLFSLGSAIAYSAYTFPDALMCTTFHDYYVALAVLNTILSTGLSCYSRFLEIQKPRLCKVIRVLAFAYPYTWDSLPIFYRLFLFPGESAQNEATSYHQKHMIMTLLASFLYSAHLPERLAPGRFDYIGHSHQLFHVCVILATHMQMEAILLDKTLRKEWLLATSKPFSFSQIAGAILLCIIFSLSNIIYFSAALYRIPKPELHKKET
# From the text: Plasmids and primers. Human PAQRs were cloned into various vectors by PCR from commercially/publically available cDNAs. PAQRs were cloned into the pYES260 (Melcher, 2000), pRS316 (Liu et al., 1992) or pGREG536 (Jansen et al., 2005) expression vectors using gap repair. The pJK90 plasmid containing a Dual Topology Reporter (DTR)-tagged OST4 gene driven by the constitutive TPI1 promoter was kindly provided by Dr. Gunnar von Heijne (Stockholm University) (Kim et al., 2003). The OST4 open reading frame in pJK90 was replaced with the PAQR6 and mPRα open reading frames by gap repair. Primers for all cloning reactions are listed herein. Proteins expressed in pYES260 have an N-terminal 6×-histidine tag followed by a TEV protease cleavage site. Proteins expressed in pGREG536 have an N-terminal 7×-HA tag. Proteins expressed in the pRS316 vector are untagged. The pYES260, pRS316 and pGREG536 vectors allow for galactose-inducible expression via the GAL1 promoter. […] The FET3-lacZ plasmid was previously described (Kupchak et al., 2007). Plasmids derived from pADM4 carrying hyperactive alleles of Gpa1p (Gpa1p^Q323L) (Slessareva et al., 2006) and Gpa2p (Gpa2p^Q300L) (Harashima et al., 2002) driven by the ADH1 promoter were kindly provided by Dr. Henrik Dohlman (UNC Chapel Hill). A pRS316-based plasmid containing the STE2 gene under the control of the GAL1 promoter (Feng et al., 2000) was kindly provided by Dr. Nicholas G. Davis (Wayne State University).
# (§1) Assays and growth conditions. Strains were maintained using standard protocol and grown in synthetic defined (SD) media with the appropriate amino acids to match the auxotrophies of the individual strains. Low Iron Medium (LIM) contains EDTA to limit iron-bioavailability and its composition has been previously described (Kupchak et al., 2007). […] In brief, overnights of cells grown in SD-glucose media were re-inoculated into iron-deficient LIM to induce the expression of FET3. 2% galactose was used as a carbon source to induce full expression of PAQR genes driven by the GAL1 promoter, while 0.05% galactose/1.95% raffinose was used for reduced PAQR expression. All ligands were added to the growth medium upon re-inoculation into LIM. For experiments in which steroids were added as ligands, steroids were added from ethanol stocks and “untreated” controls are actually treated with an equal volume of ethanol to control for vehicle effects. Cells were allowed to grow to mid-log phase at which time the activity of the FET3 gene was monitored using a FET3-lacZ promoter-reporter construct. lacZ activities are presented as a percentage of activity seen in untreated cells expressing the appropriate empty expression vector control. For individual experiments, each data point has been done in triplicate and the error bars represent +/−1 standard deviation. All experiments were performed at least three times and a representative experiment is shown. EC50 values were obtained using the web-based BioDataFit software using sigmoidal curve-fitting. (web site changbioscience.com/stat/ec50.html)
# mPRα = target: T2, mPRα (Homo sapiens, UniProt Q86WK9); assay: cell-based; details: for agonist activity on mPRα (in words): FET3-lacZ, steroids up to 10 μM; for activation of mPRα, alterations at the 17 and 21 positions of the pregnane ring (in words): further analysis of mPRα (pRS316 plasmid, 2% galactose per FIG. 7C)
# T2 construct: Full length and truncated mPRγ and mPRα were expressed in wild type cells grown in 2% galactose from the pGREG536 vector; expressed in transfected cells; host or cells: Saccharomyces cerevisiae (BY4742 wild type; also gpa mutants), GAL1-driven plasmids (TPI1 promoter in pJK90)
# T2 sequence (Q86WK9 1-346): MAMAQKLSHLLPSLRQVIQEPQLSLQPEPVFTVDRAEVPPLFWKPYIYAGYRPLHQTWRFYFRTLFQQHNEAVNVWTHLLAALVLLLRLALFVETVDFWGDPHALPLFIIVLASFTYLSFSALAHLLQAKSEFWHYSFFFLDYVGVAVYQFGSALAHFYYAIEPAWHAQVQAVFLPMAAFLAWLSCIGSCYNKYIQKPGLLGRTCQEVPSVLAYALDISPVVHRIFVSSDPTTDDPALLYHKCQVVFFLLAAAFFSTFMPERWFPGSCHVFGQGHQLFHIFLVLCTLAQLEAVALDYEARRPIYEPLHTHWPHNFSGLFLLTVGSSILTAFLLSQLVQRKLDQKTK
# From the text: Plasmids and primers. Human PAQRs were cloned into various vectors by PCR from commercially/publically available cDNAs. […] The OST4 open reading frame in pJK90 was replaced with the PAQR6 and mPRα open reading frames by gap repair. Primers for all cloning reactions are listed herein. Proteins expressed in pYES260 have an N-terminal 6×-histidine tag followed by a TEV protease cleavage site. Proteins expressed in pGREG536 have an N-terminal 7×-HA tag. Proteins expressed in the pRS316 vector are untagged. The pYES260, pRS316 and pGREG536 vectors allow for galactose-inducible expression via the GAL1 promoter. […] A pRS316-based plasmid containing the STE2 gene under the control of the GAL1 promoter (Feng et al., 2000) was kindly provided by Dr. Nicholas G. Davis (Wayne State University).
# Assays and growth conditions. Strains were maintained using standard protocol and grown in synthetic defined (SD) media with the appropriate amino acids to match the auxotrophies of the individual strains. […] In brief, overnights of cells grown in SD-glucose media were re-inoculated into iron-deficient LIM to induce the expression of FET3. […] All ligands were added to the growth medium upon re-inoculation into LIM. For experiments in which steroids were added as ligands, steroids were added from ethanol stocks and “untreated” controls are actually treated with an equal volume of ethanol to control for vehicle effects. […] All experiments were performed at least three times and a representative experiment is shown. EC50 values were obtained using the web-based BioDataFit software using sigmoidal curve-fitting. (web site changbioscience.com/stat/ec50.html)
# FET3 = assay: FET3-lacZ reporter in wild type yeast carrying empty expression plasmid; type: cell-based, Saccharomyces cerevisiae; details: no human PAQR
# From the text: as §1
# [1] = read-out: EC50 for the activation of mPRα
Structure (SMILES),agonist activity on mPRγ (in words) (mPRγ),agonist activity on mPRα (in words) (mPRα),"activation of mPRα, alterations at the 17 and 21 positions of the pregnane ring (in words) (mPRα)",EC50 (mPRα; [1]),other results
"CC#C[C@]1(O)CC[C@H]2[C@@H]3CCC4=CC(=O)CCC4=C3[C@@H](c3ccc(N(C)C)cc3)C[C@@]21C [RU-486, Mifepristone]",weak agonist,weak agonist,–,–,"increase in the EC50 of progesterone for the activation of mPRγ (mPRγ; exposure of cells to 100 nM RU-486): 15 fold; antagonism of mPRγ (mPRγ; in the presence of 100 nM progesterone, effect disappears at higher concentrations): weakly antagonizes; EC50 (mPRγ; mPRγ column of Table 4, ligand alone): 6.8 µM; EC50 (mPRγ; mPRγ, weak agonist at high concentrations): > 5 µM; EC50 (mPRα; EC50, mPRα, ligand alone): 11 µM; effect of ligand on FET3 in cells carrying empty expression plasmid (FET3): had no effect"
"C[C@]12CCC(=O)C=C1CC[C@@H]1[C@@H]2[C@@H](O)C[C@@]2(C)[C@H]1CC[C@]2(O)C(=O)CO [11β,17α,21-trihydroxyprogesterone]",–,–,ineffective agonist,–,–
C[C@]12CC[C@H]3[C@@H](CCC4=CC(=O)CC[C@@]43C)[C@@H]1CC[C@@H]2C(=O)CO [21-hydroxyprogesterone],–,–,similarly effective activators,~0.01 µM,–
"C[C@]12CCC(=O)C=C1CC[C@@H]1[C@@H]2CC[C@@]2(C)[C@H]1CC[C@]2(O)C(=O)CO [17α,21-dihydroxyprogesterone]",–,–,similarly effective activators,~0.01 µM,–
C[C@]12CC[C@H]3[C@@H](CCC4=CC(=O)CC[C@@]43C)[C@@H]1CC[C@@H]2O [testosterone],no agonist activity,no agonist activity,–,–,increase of the EC50 of progesterone for mPRγ (mPRγ; in the presence of 10 μM of the named steroid): 10 fold
